Assay results: patent US20230165864A1, “APPLICATION OF HETEROCYCLIC COMPOUND” (GUANGZHOU JOYO PHARMATECH CO., LTD, priority 2020, published 2023)
One block for each molecule: values may come before it.

Experiments:
[1] = Phase III clinical trial (N=287); cited from earlier work
[2] = Bioavailability experiments (pharmacokinetics) in beagle dogs; type: in vivo; conditions: male and female beagle dogs
Description: Bioavailability Experiments
During the experimental period, animals were housed in single cages with animal identification codes marked on the cage tags. The 12 non-naïve beagle dogs (6/sex) were randomly divided into 2 groups (3/sex/group).
(§1) (1) Non-naïve beagle dogs were administered intravenously (solvent 50% PEG400+50% PBS) at a dose volume of 2 mL/kg per dog (dose of 0.1 mg/kg per dog), and then blood was collected to measure the plasma drug concentration of non-naïve beagle dogs at different time points of 15 minutes, 30 minutes, 1 hour, 2 hours, 4 hours, 6 hours, 8 hours, and 24 hours.
as §1, with “(2)” for “(1)”, “orally” for “intravenously (solvent 50% PEG400+50% PBS)”, “1 tablet” for “2 mL/kg”, “0.5 mg” for “0.1 mg/kg”, “hours; the oral bioavailability of tablets was calculated.” for “hours.”
Plasma drug concentration data was processed in a non-compartment model using WinNonlin™ Version 6.2.1 (Pharsight, Mountain View, Calif.) pharmacokinetic software. The peak concentration (Cmax), peak time (Tmax) and quantifiable time were directly read out from the plasma drug concentration-time diagram.
The following pharmacokinetic parameters were calculated using the log-linear trapezoidal method: elimination phase half-life (T1/2), apparent volume of distribution (Vdss) and clearance rate (CL), mean residence time of the drug from 0 to the end time point in vivo (MRT0-last), mean residence time of the drug from 0 to infinite time in vivo (MRT0-inf), the area under the time-plasma concentration curve from 0 to the end time point (AUC0-last), the area under the time-plasma concentration curve from 0 to infinite time (AUC0-inf), initial concentration (C0).

[3] = Clinical trial study of tablets containing compound 11A: fasting blood glucose and safety; type: in vivo, human
Description: The embodiments were all derived from a clinical trial study. The subjects were screened and eligible to enter groups according to the entry criteria specified in the clinical protocol. The test drug was administered orally on day 1, and adverse events and combined administration were observed and recorded after administration. After safety evaluation was conducted on day 7 of the single administration period, the subjects received continuous administration of the test drug until the subjects withdrew from the clinical trial. Safety assessments were conducted during the clinical trial according to the time specified in the clinical protocol.
Embodiments 2 to 9 were derived from an ongoing clinical trial study with dose groups of 0.1 mg, 0.2 mg, 0.4 mg, 0.5 mg, 0.7 mg, 0.9 mg, 1.1 mg, and 1.4 mg.

SMILES: Cc1nc(NC(=O)N2CCC[C@H]2C(N)=O)sc1-c1ccnc(C(C)(C)C(F)(F)F)c1 [Alpelisib]
- diarrhea incidence [1]: 57.7%
- diarrhea incidence above grade 3 [1]: 6.7%
- nausea incidence [1]: 44.7%
- nausea incidence above grade 3 [1]: 2.5%
- vomiting incidence [1]: 27.1%
- vomiting incidence above grade 3 [1]: 0.7%

- Vd ([2]; both sexes, dog, plasma, single intravenous injection 0.1 mg/kg, read-out: apparent volume of distribution (Vdss)): 6.16 ± 1.91 L/kg
- AUC(0-t) ([2]; both sexes, dog, plasma, single intravenous injection 0.1 mg/kg, read-out: area under the curve AUC0-last): 0.114 ± 0.0276 µM·h
- half-life ([2]; both sexes, dog, plasma, single intravenous injection 0.1 mg/kg, read-out: mean plasma elimination phase half-life Tin (converted)): 3.21 ± 1.81 h
- clearance ([2]; both sexes, dog, plasma, single intravenous injection 0.1 mg/kg, read-out: plasma clearance rate (CL)): 24.6 ± 6.66 mL/min/kg
- bioavailability ([2]; both sexes, dog, plasma, single oral administration of tablet containing 0.5 mg of 11A (prescription of embodiment 1)): 80.9%
- Cmax ([2]; both sexes, dog, plasma, single oral administration of tablet containing 0.5 mg of 11A (prescription of embodiment 1), read-out: peak concentration (Cmax)): 11.1 ± 2.08 nM
- peak times ([2]; single oral administration of tablet containing 0.5 mg of 11A (prescription of embodiment 1)): 1.00 ± 0.00 h
SMILES: COCCOc1cnc2ccc(-c3cnc(OC)c(NS(=O)(=O)c4sc(C)nc4C)c3)cn2c1=O [Compound 11A]
- fasting blood glucose ([3]; Subject 1, tablet 0.1 mg once a day oral from Nov. 9, 2018, follow-up Mar. 14, 2019, baseline 5.64 mmol/L): 6.19 mmol/L
- fasting blood glucose ([3]; Subject 2, tablet 0.2 mg once a day oral from Jan. 16, 2019, follow-up Jan. 23, 2019, baseline 5.81 mmol/L): 6.45 mmol/L
- fasting blood glucose ([3]; Subject 3, tablet 0.4 mg once a day oral from May 30, 2019, follow-up Jun. 5, 2019, baseline 5.63 mmol/L): 6.99 mmol/L
- fasting blood glucose ([3]; Subject 5, tablet 0.7 mg once a day oral from Nov. 7, 2019, follow-up Nov. 13, 2019, baseline 6.06 mmol/L): 8.37 mmol/L
- fasting blood glucose ([3]; Subject 5, tablet 0.7 mg once a day oral from Nov. 7, 2019, follow-up Nov. 20, 2019, baseline 6.06 mmol/L): 9.44 mmol/L
- fasting blood glucose ([3]; Subject 6, 0.7 mg tablet administered continuously again from Nov. 30, 2019, follow-up Dec. 4, 2019): 11.44 mmol/L
- fasting blood glucose after stopping administration ([3]; Subject 6, 0.7 mg tablets stopped Nov. 27, 2019, measured Nov. 29, 2019): returned to normal
- fasting blood glucose ([3]; Subject 6, tablet 0.7 mg once a day oral from Nov. 21, 2019, follow-up Nov. 27, 2019, baseline 5.87 mmol/L): 11.4 mmol/L
- fasting blood glucose ([3]; Subject 7, tablet 0.7 mg once a day oral from Dec. 10, 2019, follow-up Jan. 20, 2020, baseline 5.92 mmol/L): 9.13 mmol/L
- fasting blood glucose ([3]; Subject 8, tablet 1.1 mg once a day oral from Dec. 17, 2019 (so in the source), measured Dec. 23, 2020, baseline 6.87 mmol/L): 12.66 mmol/L
- fasting blood glucose ([3]; Subject 9, tablet 1.4 mg once a day oral from Aug. 27, 2020, measured Sep. 2, 2020, baseline 5.94 mmol/L): 10.77 mmol/L
- incidence of hyperglycemia ([3]; subjects of dose groups 0.1-1.4 mg, during the administering period): 80%
- gastrointestinal side effects such as nausea, vomiting and diarrhea ([3]; the 8 subjects of embodiments 2 to 9): no significant gastrointestinal side effects
